# Values joined by “and” are separate entries in the source; they are usually repeats but may differ in a detail not shown here. Equal values may be shown once.
# System: not listed separately
# Test: microbe, parasite or virus in culture
# Conditions: Mycobacterium tuberculosis, 72 h, read-out: pIC50 (converted)
row,Structure (SMILES),IC50
1,c1ccc2c(c1)CCN(c1nc(-c3ccncc3)nc3c1CCNC3)C2,49.7 µM
2,Cc1ccccc1N1CCN(c2nc(N(C)C)nc3c2CCNC3)CC1,26 µM
3,CCCc1ccc(OC23CCCN(CC2)C3)c(OC)c1 (stereo unspecified),23.5 µM
4,CCCc1nc(N(C)CCN2CCCCCC2)c2cnn(C)c2n1,28.3 µM
5,CSc1ccc(C(CN)N2CCc3sccc3C2)cc1 (stereo unspecified),27.4 µM
6,CC(C)c1nc(CC(=O)Nc2nc(CN3CCCCCC3)cs2)cs1,23.2 µM
7,CN(C)c1nc2c(c(N3CCc4ccccc4C3)n1)CCNC2,31.3 µM

# System: not listed separately
# Test: microbe, parasite or virus in culture
# Conditions: Mycobacterium tuberculosis, 96 h, read-out: pIC50 (converted)
row,Structure (SMILES),IC50
1,c1ccc2c(c1)CCN(c1nc(-c3ccncc3)nc3c1CCNC3)C2,> 50.1 µM
2,Cc1ccccc1N1CCN(c2nc(N(C)C)nc3c2CCNC3)CC1,27 µM
3,CCCc1ccc(OC23CCCN(CC2)C3)c(OC)c1 (stereo unspecified),22.7 µM
4,CCCc1nc(N(C)CCN2CCCCCC2)c2cnn(C)c2n1,> 50.1 µM
5,CSc1ccc(C(CN)N2CCc3sccc3C2)cc1 (stereo unspecified),24.1 µM
6,CC(C)c1nc(CC(=O)Nc2nc(CN3CCCCCC3)cs2)cs1,21.2 µM
7,CN(C)c1nc2c(c(N3CCc4ccccc4C3)n1)CCNC2,> 50.1 µM
8,COc1cccn(CC(=O)N(C)CCC2CCOCC2)c1=O,> 50.1 µM

# Biological target: T1, Histidine--tRNA ligase (Leishmania infantum, UniProt A4I591)
# T1 sequence (A4I591 whole entry): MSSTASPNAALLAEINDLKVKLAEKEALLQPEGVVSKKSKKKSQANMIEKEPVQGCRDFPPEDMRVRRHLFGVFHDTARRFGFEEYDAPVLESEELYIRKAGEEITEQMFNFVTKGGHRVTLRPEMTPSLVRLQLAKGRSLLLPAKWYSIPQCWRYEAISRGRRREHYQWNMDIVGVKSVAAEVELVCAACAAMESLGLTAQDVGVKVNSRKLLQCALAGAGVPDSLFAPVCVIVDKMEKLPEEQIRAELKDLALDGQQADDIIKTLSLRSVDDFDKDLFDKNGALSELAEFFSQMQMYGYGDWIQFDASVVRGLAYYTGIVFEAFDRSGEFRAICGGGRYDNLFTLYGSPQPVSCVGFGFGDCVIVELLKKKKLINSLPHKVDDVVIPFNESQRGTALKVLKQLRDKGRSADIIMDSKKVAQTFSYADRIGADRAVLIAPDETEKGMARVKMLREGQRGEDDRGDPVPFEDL
# Test: Leishmania infantum Histidine tRNA synthetase (LdHisRS)
# Assay type: functional
# Conditions: not given
row,Structure (SMILES),IC50
1,c1ccc2c(c1)CCN(c1nc(-c3ccncc3)nc3c1CCNC3)C2,9.69 µM and 11.1 µM
2,Cc1ccccc1N1CCN(c2nc(N(C)C)nc3c2CCNC3)CC1,55.3 µM and 91.3 µM
3,CCCc1ccc(OC23CCCN(CC2)C3)c(OC)c1 (stereo unspecified),38 µM and 39.5 µM
4,CCCc1nc(N(C)CCN2CCCCCC2)c2cnn(C)c2n1,41.4 µM and 39.5 µM
5,CSc1ccc(C(CN)N2CCc3sccc3C2)cc1 (stereo unspecified),73.8 µM and 73.2 µM
6,CC(C)c1nc(CC(=O)Nc2nc(CN3CCCCCC3)cs2)cs1,39.8 µM and 33.5 µM
7,CN(C)c1nc2c(c(N3CCc4ccccc4C3)n1)CCNC2,28.8 µM and 22.8 µM
8,O=C1CN(C(=O)c2cc(-c3ccco3)nc3c(Cl)cccc23)CCN1,18.6 µM and 19.5 µM
9,c1ccc(-n2ncc(CNCC3CCCN3c3cccnn3)n2)cc1 (stereo unspecified),22.3 µM and 27.2 µM
10,CCCn1nc2c(cc1=O)CN(Cc1cc(C)no1)CC2,24.8 µM and 27.4 µM
11,CCN1CC2(CCOCC2)c2cc(NS(=O)(=O)CC)ccc21,8.64 µM and 21.4 µM
12,Cc1ccc(C(=O)N2CCN(C(=O)NC(C)Cn3ccnc3)CC2)o1 (stereo unspecified),> 100 µM
13,Cc1cc(C(=O)N2CC[C@@H](N(C)C)[C@@H]2Cc2ccccc2)no1,> 100 µM
14,CNC(=O)c1cn2cc(-c3ccccc3Cl)n(CC=C(C)C)c(=O)c2n1,54.6 µM and 36 µM
15,CN(C)CCN1CCO[C@@H]2CCN(C(=O)c3cccn3C)CC[C@H]21,> 100 µM
16,CC(C)N(C)S(=O)(=O)c1ccc2c(c1)CCN(C(=O)c1ccccn1)C2,37 µM and 42.8 µM
17,Cn1cc(NC(=O)N2CCN(Cc3cscn3)CC2)ccc1=O,8.51 µM and 8.59 µM
18,CCc1ccc2c(C3CN(CC4CCC4)C3)ncn2c1,15.7 µM and 18.7 µM
19,COc1cccn(CC(=O)N(C)CCOc2cc(C)cc(C)c2)c1=O,3.92 µM and 3.35 µM
20,CC(Nc1nc(-c2ccncc2)nc2c1CCNC2)c1ccccc1 (stereo unspecified),43.4 µM and 46.8 µM
21,COCCN1CCCC(C)(c2cc(O)[nH]n2)C1 (stereo unspecified),> 100 µM
22,Cc1cs/c(=N/C(=O)c2csc(NCC(C)C)n2)[nH]1,28.6 µM and 46.9 µM
23,Cc1nccn1-c1cccc(C2CCCN(C3CCCC3)C2)n1 (stereo unspecified),32.3 µM and 35.9 µM

row,Structure (SMILES),IC50
1,Nc1cccnc1N1CCCCCC1,16.4 µM and 17.4 µM
2,CC1=C(C#N)C(=O)NC(=O)/C1=C\c1c(C)nn(-c2ccc(Cl)cc2)c1O,> 100 µM
3,Cc1nc(N2CCCC2)nc2c1CCN(C(=O)C1CCC1)CC2,> 100 µM
4,CCN(C(=O)c1nc2c(s1)CCCN2Cc1ccccc1)C(C)C,22.3 µM and 17.3 µM
5,O=C(O)C1c2nc[nH]c2CCN1CC(c1ccccc1)c1ccccc1 (stereo unspecified),6.21 µM and 7.09 µM
6,c1cncc(-c2ccc3c(c2)C2(CC3)CCN(c3nncs3)CC2)c1,32.5 µM and 45.4 µM
7,COc1cccc2c1OCCCN(c1nc(N)nc3c1CCNC3)C2,28.2 µM and 32.1 µM
8,Cc1ccc(C)c(OC(C)C(=O)NCCNc2cccnc2)c1 (stereo unspecified),23.4 µM and 28.9 µM
9,O=C1CC(c2ccc(C(=O)O)cc2)c2ncn(-c3ccccc3F)c2N1 (stereo unspecified),19.1 µM and 25.2 µM
10,CCC1CN(CCC(=O)N(C)C)CCN1CCOC (stereo unspecified),> 100 µM
11,Cc1cc2nc(SCC(=O)N3CCCC3)n(-c3ccccc3)c(=O)c2[nH]1,80.7 µM and > 100 µM
12,Cn1cnnc1C1CCCN(C(=O)c2cc(C3CC3)on2)C1 (stereo unspecified),> 100 µM
13,O=C(Nc1cccn(Cc2ccccc2)c1=O)c1ccncc1F,35.7 µM and 31.2 µM
14,COc1cccc(N2CCN(Cc3cccc(CCN)c3)CC2=O)c1,23.3 µM and 28.2 µM
15,COc1cccn(CC(=O)N(C)CCC2CCOCC2)c1=O,> 100 µM
16,Cc1nnc(SCC(=O)c2cc3c(cc2Cl)NC(=O)C3)o1,42.4 µM and 52.8 µM
17,O=C(c1nc2c(s1)CCCN2CC1CC1)N1CCOCC1,19 µM and 13.2 µM
18,COCCCN(C)C(=O)Cn1cccc(OC)c1=O,66 µM and 57.5 µM
19,CC(C)[C@H](NS(C)(=O)=O)C(=O)NCc1cc(-c2ccco2)n[nH]1,87.9 µM and 82 µM
20,O=C1NCC(C(=O)Nc2ccc(=O)n(Cc3ccccc3Cl)c2)N1 (stereo unspecified),12.7 µM and 15.3 µM
21,CN(CCOc1ccccc1)C(=O)Nc1cccn(C)c1=O,15 µM and 15.4 µM
22,Cc1nnc(NCc2ccccc2Cl)c(C#N)c1C,24.6 µM and 31.1 µM
23,CCn1nc2c(cc1=O)CN(c1nc3ccccc3s1)CC2,62.6 µM and 73.7 µM

row,Structure (SMILES),IC50
1,Cc1nnc2n1CCN(C(=O)c1ccc(Cn3cccc3)cc1)C2,51.2 µM and 44 µM
2,Cn1nccc1-c1ncc(-c2cc(C(=O)O)n(CC3CC3)c2)cn1,> 100 µM
3,CCN1C(=O)C(C#N)=C(C)/C(=C/C2=Cc3ccccc3OC2)C1=O,1.68 µM and 1.77 µM and 1.36 µM and 1.79 µM
4,CC1=Nc2c(c(=O)[nH]n2C(C)C)C(c2ccc3c(c2)OCCO3)S1 (stereo unspecified),> 100 µM
5,Clc1cc(NCc2ccncc2)nc2[nH]ccc12,18.7 µM and 17.4 µM
6,CN1C(=O)[C@H]2CC[C@@H]1CN(C(=O)Nc1cccc3ccccc13)C2,55.3 µM and 43.3 µM
7,CCC1CCc2c(c3ccccc3[nH]c2=O)O1 (stereo unspecified),> 100 µM
8,c1cncc(NCCNC2CCSC2)c1 (stereo unspecified),31.9 µM and 23 µM
9,CC(=O)Cc1c(C)nn(-c2cncc(N)c2)c1C,33.4 µM and 30.1 µM
10,CCOc1ccc2nc(CN3CCC(CN)C3)ccc2c1 (stereo unspecified),33.2 µM and 46.9 µM
11,CN(C)[C@@H]1C[C@@H](CO)N(C(=O)Nc2ccc(SC(F)(F)F)cc2)C1,> 100 µM
12,CC(C)c1ncc2c(n1)CN(Cc1nc(Cc3ccccc3)no1)CC2,> 100 µM
13,CCn1nnc2c1C(COC)CN(Cc1ccco1)C2 (stereo unspecified),> 100 µM
14,NC(=O)CN1CCN(CC2CC2)c2ccccc21,> 100 µM
15,COc1ccc(NC(=O)C2CCCO2)cc1OCc1cccnc1 (stereo unspecified),> 100 µM and 72.6 µM
16,COc1cccn(CC(=O)N(C)Cc2ccoc2)c1=O,> 100 µM
17,CC(O)CNC(=O)NCc1ccc(N2CCNC(=O)C2)cc1 (stereo unspecified),> 100 µM and 58.3 µM
18,CCCN1CCC(Cc2nn3c(C(C)C)nnc3s2)CC1,> 100 µM
19,COCCOc1ccccc1C(=O)N1CCCCC1c1nccs1 (stereo unspecified),51.1 µM and 64.2 µM
20,O=C(CCNCc1cccc(O)c1)N1CCc2sccc2C1,17.7 µM and 23 µM
21,CC(C(=O)Nc1ccc(N2CCCC2)nc1)n1cncn1 (stereo unspecified),> 100 µM
22,Cn1cc(NC(=O)Nc2ccccn2)cc(Cl)c1=O,13.6 µM and 14.1 µM
23,COc1ccccc1N1CCC(CNCc2cccc(OC)c2OC)C1 (stereo unspecified),> 100 µM

row,Structure (SMILES),IC50
1,CCOc1nnc(CNC2CCCN(c3ccc(C)nn3)C2)s1 (stereo unspecified),> 100 µM and 94.7 µM
2,c1cc2nccc(CC3CCCN(Cc4ncc[nH]4)CC3)c2cn1 (stereo unspecified),> 100 µM
3,CC(C)c1nn(C)c(N(C)C)c1CNCc1ccccc1CN(C)C,> 100 µM
4,NCCc1cccc(CN2CCN(c3ccccc3)C(=O)C2)c1,26.8 µM and 20.5 µM
5,CCCn1nc2c(cc1=O)CN(CCCN1CCCC1=O)CC2,48.6 µM and 55.3 µM
6,CCCn1nc2c(cc1=O)CN(Cc1nc(CCOC)no1)CC2,57.7 µM and 67.2 µM
7,COCCN1CCCc2sc(C(=O)NCC3CCCO3)nc21 (stereo unspecified),22.4 µM and 24.1 µM
8,O=C(CCc1n[nH]c2c1CCCC2)N1C[C@@H]2CC[C@H](C1)N(CC1CC1)C2,44.9 µM and 35.8 µM
9,Cc1c(Cl)cccc1NC(=O)Cn1cc(C(=O)O)ccc1=O,> 100 µM
10,Cn1ncc(-c2cc(-c3cccc(O)c3)nc(N)c2C#N)c1C1CC1,61.2 µM and 76.8 µM
11,NC(=O)c1ccc(N2CCCCC2)c(NC(=O)c2cc(Br)ccc2Cl)c1,30.2 µM and 29.7 µM
12,CC(=O)N1CCN(C(=O)CNc2ccc3ncsc3c2)CC1,6.78 µM and 9.49 µM
13,COCCN1CCC(C)(c2cc(O)[nH]n2)CC1,71.4 µM and 66.4 µM
14,CC(=O)Nc1ccc2nc(-c3nccn3C[C@@H]3CCCO3)ccc2c1,> 100 µM and 85.4 µM
15,CN(C)c1ncc(-c2c(-c3ccccc3)ncn2C(CO)C(=O)O)cn1 (stereo unspecified),> 100 µM
16,COc1cccc(-c2n[nH]c3c2CN(C(=O)c2cccc(=O)[nH]2)CC3)c1,12.9 µM
17,Cc1c(CN2CCOCC2)c(O)n(CCc2ccccc2)c(=O)c1C#N,23.3 µM and 19.8 µM
18,CC(C)c1ccc(C(=O)O)cc1S(=O)(=O)Nc1ccc(=O)n(C)c1,12.5 µM and 14.9 µM
19,CCCc1nc(CN2CCOC(CNc3cccnn3)C2)cs1 (stereo unspecified),45.1 µM and 33.5 µM
20,O=C(CN1CCc2cncnc2C1)NCCOc1ccccc1,74.1 µM and 60.5 µM
21,CC(C)C(C)NC(=O)Nc1cccn(C)c1=O (stereo unspecified),65.4 µM and 53.4 µM
22,Cc1cc(C(=O)NCC(F)(F)F)c2c(C3CCCN3)noc2n1 (stereo unspecified),38.4 µM and 70 µM

# — ChEMBL document CHEMBL3988442, “University of Dundee, Small-Polar-MMV Screening Library” (2021)
